PubChem BioAssay AID256 (DTP/NCI, 2004)
Where “and” joins values, the source holds several entries; their conditions need not be identical. Identical values can stand only once. Inconclusive results and toxic doses are left out. Rule for the calls: active = survival T/C of 150% or more; inactive = T/C below 125% in these data.

Test system: CD2F1 mice, L1210 leukemia ip, survival T/C
Test: NCI In Vivo Anticancer Drug Screen. Data for tumor model L1210 Leukemia (intraperitoneal) in CD2F1 (CDF1) mice
Settings: higher = longer survival
Summary of the method: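 Compound-dosed mice with transplantable tumor versus matched vehicle controls; endpoint ratio T/C reported.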

[1] = endpoint: mean survival time, dose: 25.0 mg/kg/injection, schedule: Q01DX009 (ip), vehicle: saline with Tween-80
[2] = endpoint: mean survival time, dose: 50.0 mg/kg/injection, schedule: Q01DX009 (ip), vehicle: saline with Tween-80
[3] = endpoint: mean survival time, dose: 100.0 mg/kg/injection, schedule: Q01DX009 (ip), vehicle: saline with Tween-80
[4] = endpoint: mean survival time, dose: 200.0 mg/kg/injection, schedule: Q01DX009 (ip), vehicle: saline with Tween-80
[5] = endpoint: mean survival time, dose: 12.5 mg/kg/injection, schedule: Q01DX009 (ip), vehicle: saline with Tween-80
[6] = endpoint: mean survival time, dose: 100.0 mg/kg/injection, schedule: Q04DX002 (ip), vehicle: saline with Tween-80
[7] = endpoint: mean survival time, dose: 100.0 mg/kg/injection, schedule: Q01DX001 (ip), vehicle: saline with Tween-80
[8] = endpoint: mean survival time, dose: 200.0 mg/kg/injection, schedule: Q01DX001 (ip), vehicle: saline with Tween-80
[9] = endpoint: mean survival time, dose: 400.0 mg/kg/injection, schedule: Q01DX001 (ip), vehicle: saline with Tween-80
[10] = endpoint: mean survival time, dose: 200.0 mg/kg/injection, schedule: Q04DX002 (ip), vehicle: saline with Tween-80
[11] = endpoint: mean survival time, dose: 400.0 mg/kg/injection, schedule: Q04DX002 (ip), vehicle: saline with Tween-80
[12] = endpoint: mean survival time, dose: 100.0 mg/kg/injection, schedule: Q04DX003 (ip), vehicle: saline with Tween-80
[13] = endpoint: mean survival time, dose: 200.0 mg/kg/injection, schedule: Q04DX003 (ip), vehicle: saline with Tween-80
[14] = endpoint: mean survival time, dose: 400.0 mg/kg/injection, schedule: Q04DX003 (ip), vehicle: saline with Tween-80
[15] = endpoint: mean survival time, dose: 400.0 mg/kg/injection, schedule: Q01DX009 (ip), vehicle: saline with Tween-80

Measured: T/C

O=[N+]([O-])c1cccc(SNc2cccc(Cl)c2)c1
inactive: [1] 102 % of control | [2] 90 % of control | [3] 94 % of control

O=C(O)C1SCCCS1
inactive: endpoint: mean survival time, dose: 12.5 mg/kg/injection, schedule: Q04DX002 (ip), vehicle: saline 105 % of control | endpoint: mean survival time, dose: 25.0 mg/kg/injection, schedule: Q04DX002 (ip), vehicle: saline 94 % of control | endpoint: mean survival time, dose: 50.0 mg/kg/injection, schedule: Q04DX002 (ip), vehicle: saline 94 % of control

O=C1CN(CCN2CC(=O)N(C(=O)c3ccccc3)C2=S)C(=S)N1Cc1ccccc1
inactive: [2] 96 % of control | [3] 96 % of control | [4] 96 % of control

Cc1cccc(NC(=O)c2ccccc2)n1
inactive: [5] 97 % of control | [1] 101 % of control | [2] 103 % of control

Nc1ncnc2c1nc(NCc1ccccc1)n2C1OC(CO)C(O)C1O (centres undefined)
inactive: endpoint: mean survival time, dose: 12.5 mg/kg/injection, schedule: Q01DX005 (ip), vehicle: distilled water + Tween-80 93 % of control | endpoint: mean survival time, dose: 25.0 mg/kg/injection, schedule: Q01DX005 (ip), vehicle: distilled water + Tween-80 100 % of control and 95 % of control | endpoint: mean survival time, dose: 50.0 mg/kg/injection, schedule: Q01DX005 (ip), vehicle: distilled water + Tween-80 92 % of control and 101 % of control | endpoint: mean survival time, dose: 100.0 mg/kg/injection, schedule: Q01DX005 (ip), vehicle: distilled water + Tween-80 99 % of control and 93 % of control | endpoint: mean survival time, dose: 200.0 mg/kg/injection, schedule: Q01DX005 (ip), vehicle: distilled water + Tween-80 99 % of control and 100 % of control | endpoint: mean survival time, dose: 400.0 mg/kg/injection, schedule: Q01DX005 (ip), vehicle: distilled water + Tween-80 89 % of control

CC(C)(C)c1ccc(SC(=O)c2ccc(C(=O)Sc3ccc(C(C)(C)C)cc3)cc2)cc1
inactive: endpoint: mean survival time, dose: 25.0 mg/kg/injection, schedule: Q04DX002 (ip), vehicle: saline with Tween-80 91 % of control | endpoint: mean survival time, dose: 50.0 mg/kg/injection, schedule: Q04DX002 (ip), vehicle: saline with Tween-80 87 % of control | [6] 91 % of control and 102 % of control

CCOc1ccc2ccccc2c1C(=O)N(CCCl)CCCl
inactive: [1] 94 % of control | [3] 104 % of control

CCCCCCCCCCCCCCCC(=O)NCC[N+](C)(C)C
inactive: endpoint: mean survival time, dose: 75.0 mg/kg/injection, schedule: Q01DX001 (ip), vehicle: saline 107 % of control | endpoint: mean survival time, dose: 150.0 mg/kg/injection, schedule: Q01DX001 (ip), vehicle: saline 104 % of control | endpoint: mean survival time, dose: 300.0 mg/kg/injection, schedule: Q01DX001 (ip), vehicle: saline 104 % of control

CCC[CH2][Sn]([CH2]CCC)[CH2]CCC.CCC[CH2][Sn]([CH2]CCC)[CH2]CCC
inactive: endpoint: mean survival time, dose: 12.5 mg/kg/injection, schedule: Q04DX003 (ip), vehicle: Klucel (hydroxypropylcellulose) (HPC) 93 % of control | endpoint: mean survival time, dose: 25.0 mg/kg/injection, schedule: Q04DX003 (ip), vehicle: saline 97 % of control | endpoint: mean survival time, dose: 50.0 mg/kg/injection, schedule: Q04DX003 (ip), vehicle: saline 97 % of control

CCC(C)(O)Cc1cnccn1 (centres undefined)
inactive: endpoint: mean survival time, dose: 100.0 mg/kg/injection, schedule: Q01DX009 (ip), vehicle: saline 108 % of control | endpoint: mean survival time, dose: 200.0 mg/kg/injection, schedule: Q01DX009 (ip), vehicle: saline 97 % of control | endpoint: mean survival time, dose: 400.0 mg/kg/injection, schedule: Q01DX009 (ip), vehicle: saline 96 % of control

CC1CC(C)(C)N=C(Cc2ccccc2)O1 (centres undefined)
inactive: [7] 101 % of control | [8] 93 % of control | [9] 96 % of control

CCCCNC(=O)c1ccc2c(c1)C(=O)N(CCCC)C2=O
inactive: [6] 101 % of control | [10] 104 % of control | [11] 93 % of control

CC(=O)Nc1cccc(OCCCOc2cccc([N+](=O)[O-])c2)c1
inactive: [12] 95 % of control | [13] 95 % of control | [14] 92 % of control

CC1(C)CC(=O)N(Cc2ccccc2)N1C(=O)c1ccccc1
inactive: [7] 113 % of control | [8] 106 % of control | [9] 101 % of control

Nc1ccc2cc3ccccc3cc2c1
inactive: [5] 104 % of control | [1] 104 % of control | [2] 95 % of control | [12] 109 % of control | [13] 111 % of control | [14] 94 % of control

COC(CCN1C(=O)c2ccccc2C1=O)C(Br)C(=O)O (centres undefined)
inactive: [3] 92 % of control | [12] 101 % of control | [4] 92 % of control | [13] 97 % of control | [15] 89 % of control | [14] 98 % of control

COC1OC(C(COC(C)=O)OC(C)=O)C(OC(C)=O)C(OC(C)=O)C1OC(C)=O (centres undefined)
inactive: [3] 95 % of control | [4] 102 % of control | [15] 104 % of control

CN(C)CCCNC(CC#N)CCC#N (centres undefined)
inactive: endpoint: mean survival time, dose: 100.0 mg/kg/injection, schedule: Q04DX003 (ip), vehicle: saline 96 % of control | endpoint: mean survival time, dose: 200.0 mg/kg/injection, schedule: Q04DX003 (ip), vehicle: saline 95 % of control

Clc1cc(Cl)cc(Nc2nc(C(Cl)(Cl)Cl)nc(C(Cl)(Cl)Cl)n2)c1
inactive: [2] 98 % of control | [3] 95 % of control | [12] 89 % of control | [4] 90 % of control | [13] 86 % of control

CC1CC[N-]CC1.CC1CC[N-]CC1.CC1CC[N-]CC1.CC1CC[N-]CC1.[Cl][Rh][Cl]
inactive: endpoint: mean survival time, dose: 50.0 mg/kg/injection, schedule: Q01DX009 (ip), vehicle: saline sonified 97 % of control | endpoint: mean survival time, dose: 100.0 mg/kg/injection, schedule: Q01DX009 (ip), vehicle: saline sonified 97 % of control | [12] 111 % of control | [13] 86 % of control

CC(C)OP(=O)(OCCCO)C(Cl)Cl (centres undefined)
inactive: endpoint: mean survival time, dose: 100.0 mg/kg/injection, schedule: Q01DX001 (ip), vehicle: saline 100 % of control | endpoint: mean survival time, dose: 200.0 mg/kg/injection, schedule: Q01DX001 (ip), vehicle: saline 102 % of control | endpoint: mean survival time, dose: 400.0 mg/kg/injection, schedule: Q01DX001 (ip), vehicle: saline 102 % of control

C(=N\N=C\C1CCc2ccccc21)/c1ccco1 (centres undefined)
inactive: [3] 88 % of control | [12] 94 % of control | [13] 93 % of control | [15] 88 % of control | [14] 87 % of control

CCOc1c(Cl)cc(Cl)cc1C(c1ccccc1S(=O)(=O)O)c1cc(Cl)cc(Cl)c1OCC
inactive: endpoint: mean survival time, dose: 6.25 mg/kg/injection, schedule: Q01DX009 (ip), vehicle: saline sonified 97 % of control | endpoint: mean survival time, dose: 6.25 mg/kg/injection, schedule: Q04DX003 (ip), vehicle: saline sonified 97 % of control | endpoint: mean survival time, dose: 12.5 mg/kg/injection, schedule: Q01DX009 (ip), vehicle: saline sonified 96 % of control | endpoint: mean survival time, dose: 12.5 mg/kg/injection, schedule: Q04DX003 (ip), vehicle: saline sonified 103 % of control | endpoint: mean survival time, dose: 25.0 mg/kg/injection, schedule: Q01DX009 (ip), vehicle: saline sonified 96 % of control | endpoint: mean survival time, dose: 25.0 mg/kg/injection, schedule: Q04DX003 (ip), vehicle: saline sonified 95 % of control

CCCCCCCCCCCCCCCCCCSC1=CC(=O)C(OC)=C(OC)C1=O
inactive: endpoint: mean survival time, dose: 3.13 mg/kg/injection, schedule: Q01DX009 (ip), vehicle: Klucel (hydroxypropylcellulose) (HPC) 90 % of control | endpoint: mean survival time, dose: 6.25 mg/kg/injection, schedule: Q01DX009 (ip), vehicle: Klucel (hydroxypropylcellulose) (HPC) 88 % of control | endpoint: mean survival time, dose: 50.0 mg/kg/injection, schedule: Q01DX009 (ip), vehicle: Klucel (hydroxypropylcellulose) (HPC) 94 % of control

c1ccc2c(c1)Cc1c(NC3=NCCO3)cccc1-2
inactive: [12] 98 % of control | [13] 109 % of control | [14] 101 % of control

CCN(CC)S(=O)(=O)c1ccc(-c2cc(Cl)c3cc(S(=O)(=O)F)ccc3n2)cc1
inactive: [3] 107 % of control | [4] 87 % of control | [15] 91 % of control

O=C(c1cccnc1)c1c[nH]c2ccccc12
inactive: [6] 101 % of control | [10] 97 % of control | [11] 97 % of control

NCC(O)O.NCC(O)O.NCC(O)O.NCC(O)O.[Mo].[Mo]
inactive: [7] 93 % of control | [8] 89 % of control | [9] 104 % of control

Cc1cc(NS(=O)(=O)c2ccc(N=Nc3cc(N=Nc4ccc(S(=O)(=O)Nc5cc(C)nc(C)n5)cc4)c4c(NC(=O)C(Cl)Cl)cccc4c3OC(=O)C(Cl)Cl)cc2)nc(C)n1 (tested in a mixture with another compound)
inactive: endpoint: median survival time, dose: 12.5 mg/kg/injection, schedule: Q01DX009 (ip), vehicle: suspension in saline 103 % of control | endpoint: median survival time, dose: 25.0 mg/kg/injection, schedule: Q01DX009 (ip), vehicle: suspension in saline 103 % of control | endpoint: median survival time, dose: 50.0 mg/kg/injection, schedule: Q01DX009 (ip), vehicle: suspension in saline 98 % of control | endpoint: median survival time, dose: 100.0 mg/kg/injection, schedule: Q01DX009 (ip), vehicle: suspension in saline 104 % of control | endpoint: median survival time, dose: 200.0 mg/kg/injection, schedule: Q01DX009 (ip), vehicle: suspension in saline 104 % of control
